Literature values as cited in patent US20230374563A1, “Methods for Antimicrobial Susceptibility Testing” (MicrobeDX, Inc., priority 2017, published 2023).
Converted amounts (≈) assume the structure as drawn.

Tested on: bacteria
Conditions: for CLSI MIC Cutoffs for (Urine) AST Determination I / MIC Criteria CLSI M100 (2018) I: Intermediate; for CLSI MIC Cutoffs for (Urine) AST Determination R / MIC Criteria CLSI M100 (2018) R: Resistant; for CLSI MIC Cutoffs for (Urine) AST Determination S / MIC Criteria CLSI M100 (2018) S: Susceptible; for MIC Criteria CLSI M100 (2018) S: cefazolin cutoffs for cases not identified as uncomplicated

| Compound | CLSI MIC Cutoffs for (Urine) AST Determination I | CLSI MIC Cutoffs for (Urine) AST Determination R | CLSI MIC Cutoffs for (Urine) AST Determination S | MIC Criteria CLSI M100 (2018) I [µg/mL] | MIC Criteria CLSI M100 (2018) R [µg/mL] | MIC Criteria CLSI M100 (2018) S [µg/mL] |
| --- | --- | --- | --- | --- | --- | --- |
| NCC[C@H](O)C(=O)N[C@@H]1C[C@H](N)[C@@H](O[C@H]2O[C@H](CN)[C@@H](O)[C@H](O)[C@H]2O)[C@H](O)[C@H]1O[C@H]1O[C@H](CO)[C@@H](O)[C@H](N)[C@H]1O [Amikacin] | 32 µg/mL | ≥64 µg/mL | ≤16 µg/mL | – | – | – |
| CC1(C)S[C@@H]2[C@H](NC(=O)[C@H](N)c3ccccc3)C(=O)N2[C@H]1C(=O)O [Ampicillin] | 16 µg/mL | ≥32 µg/mL | <8 µg/mL | 16 (≈ 45.8 µM) | ≥32 | ≤8 |
| CO/N=C(\C(=O)N[C@@H]1C(=O)N2C(C(=O)O)=C(CSc3nc(=O)c(=O)[nH]n3C)CS[C@H]12)c1csc(N)n1 [Ceftriaxone] | 2 µg/mL | ≥4 µg/mL | ≤1 µg/mL | 2 (≈ 3.61 µM) | ≥4 | ≤1 |
| C[C@@H](O)[C@H]1C(=O)N2C(C(=O)O)=C(S[C@@H]3CN[C@H](C(=O)Nc4cccc(C(=O)O)c4)C3)[C@H](C)[C@H]12 [Ertapenem] | 1 µg/mL | ≥2 µg/mL | ≤0.5 µg/mL | – | – | – |
| C[C@@H]1O[C@@H]1P(=O)(O)O [Fosfomycin] | 128 µg/mL | ≥256 µg/mL | ≤64 µg/mL | – | – | – |
| C[C@@H](O)[C@H]1C(=O)N2C(C(=O)O)=C(S[C@@H]3CN[C@H](C(=O)N(C)C)C3)[C@H](C)[C@H]12 [Meropenem] | 2 µg/mL | ≥4 µg/mL | ≤1 µg/mL | – | – | – |
| Amoxicillin/Clavulanate [Amox/Clav] | 16/8 | ≥32/16 | ≤8/4 | – | – | – |
| Gentamicin | 8 µg/mL | ≥16 µg/mL | ≤4 µg/mL | – | – | – |
| Piperacillin/Tazobactam [Pip/Tazo] | – | ≥128/4 | ≤16/4 | – | – | – |
| Trimethoprim/Sulfamethoxazole [TMP/SMX] | – | ≥4/76 | ≤2/38 | – | – | – |
